The text below walks through data of patent US8758746B2, “Fertilization modulation compounds and process for implementing them” (Universite Joseph Fourier, priority 2009, dated 2014).

Each structure is given as a SMILES string. “Also recorded” adds a separate entry of the source.

The subject of assay [1] is Sperm cells. Nature of the assay: Electron microscopy of sPLA2-induced acrosome reaction. The settings on record: uncapacitated sperm, incubated 10 min (200 nM sPLA2). In kind it is cell-based, mouse. As for the experimental part: Sperm cells were fixed with 2.5% glutaraldehyde in 0.1 M cacodylate buffer pH 7.4 during 2 hours at room temperature. Cells were then washed with buffer and post fixed with 1% Osmium tetroxyde in the same buffer during 1 hour at 4° C. After extensive washing with water cells were then stained with 0.5% uranile acetate pH 4 overnight at 4° C. Cells were then dehydrated through graded alcohol (30%-60%-90%-100%-100%-100%) and infiltrate with a mix of 1/1 epon/alcohol 100% during 1 hour before several bath of fresh epon (Flukka) during 3 hours. Finally, cells were centrifugated and immersed in fresh Epon and polymerised during 3 days at 60° C. Ultrathin sections of the cell pellet were cut with an ultramicrotome (Leica). Sections were post-stained with 4% uranile acetate and 1% lead citrate before being observed in an electron microscope at 80 kV (JEOL 1200EX).
It was important to check with electron microscopy (EM) that sPLA2 induced a morphologically normal acrosome reaction. The morphological criteria by which an acrosome reaction is evaluated to be normal are relatively limited: first, the outer acrosomal membrane should present vesiculation, second, the plasma membrane should fuse with the outer acrosomal membrane and present a characteristic double hair pin shape at the base of the acrosome (Green, D. P. (1978) The induction of the acrosome reaction in guinea-pig sperm by the divalent metal cation ionophore A23187. J. Cell Sci., 32:137-51.:137-151.)
For these experiments, uncapacitated sperm was used in order to reduce the contribution of spontaneous AR and 200 nM sPLA2 to get maximum sPLA2-induced AR. Sperm were incubated 10 min with mGX sPLA2 or the calcium ionophore A23187 and then fixed. In the presence of A23187, all acrosome-reacted sperm presented complete AR, with the 3 morphological criteria, as described above.

For assay [2], the system named is Sperm cells. Kind of assay: Detection of mGX sPLA2 released from sperm cells (TR-FIA). In kind it is cell-based, mouse. Conditions: 90 min capacitation in 2% BSA, A23187 (5 μM) during the last 30 min. How it is done:
Sperm cells from 4 caudae epididymes of mGX sPLA2 mice were allowed to swim for 15 min at 37° C. in 2.5 ml of M2 medium. Aliquots of 500 μl of sperm cells were then diluted in 4.5 ml of M16 medium containing 2% fatty acid free BSA and further incubated at 37° C. for 0, 45 and 90 min. In some assays, A23187 Ca2+ ionophore (5 μM) was added after the first 60 min of incubation and sperm cells were incubated for an additional 30 min. After incubation, sperm cells were spun down for 8 min at 1,200 rpm, and supernatants and cell pellets were flash frozen in liquid nitrogen and stored at −80° C. mGX sPLA2 protein expression and enzymatic activity were analyzed on crude cell supernatants and cell pellets after resuspension in 500 μl of M16 medium containing a cocktail of protease inhibitors (Complete inhibitor set, Roche Biochemicals) and lysis with a Branson 350 Sonifier Cell disrupter. […] Briefly, 5 to 50 μl of cell lysates or supernatants were incubated for 60 min in 300 μl of sPLA2 activity buffer (0.1 M Tris pH 8.0, 10 mM CaCl2, and 0.1% bovine serum albumin containing 100,000 DPM of [3H]oleate-radiolabeled E. coli membranes. Reactions were stopped by addition of 300 μl of stop buffer (0.1 M EDTA pH 8.0 and 0.1% fatty acid free bovine serum Albumin); mixtures were centrifuged at 10,000 g for 5 min, and the supernatants containing released [^3H]oleate were counted.

As to `CNc1ccc2oc(C[C@H]3O[C@@]4(CC[C@H]3C)O[C@H]([C@H](C)C(=O)c3ccc[nH]3)[C@H](C)C[C@H]4C)nc2c1C(=O)O` [A23187], in the assay on Sperm cells [1], the “morphology of induced acrosome reaction (electron microscopy)” value is “complete AR”. Also, in the assay on Sperm cells [2], the “mGX level in the capacitation medium (TRFIA)” value is “two fold increase; also recorded: doubled”.
